Read-outs that look alike come from different tables or passages of the source.
Columns and labels:
PPAR alpha = molecular target: T1, PPAR alpha (Homo sapiens, UniProt Q07869); conditions: cited from earlier work
T1 sequence (Q07869 1-468): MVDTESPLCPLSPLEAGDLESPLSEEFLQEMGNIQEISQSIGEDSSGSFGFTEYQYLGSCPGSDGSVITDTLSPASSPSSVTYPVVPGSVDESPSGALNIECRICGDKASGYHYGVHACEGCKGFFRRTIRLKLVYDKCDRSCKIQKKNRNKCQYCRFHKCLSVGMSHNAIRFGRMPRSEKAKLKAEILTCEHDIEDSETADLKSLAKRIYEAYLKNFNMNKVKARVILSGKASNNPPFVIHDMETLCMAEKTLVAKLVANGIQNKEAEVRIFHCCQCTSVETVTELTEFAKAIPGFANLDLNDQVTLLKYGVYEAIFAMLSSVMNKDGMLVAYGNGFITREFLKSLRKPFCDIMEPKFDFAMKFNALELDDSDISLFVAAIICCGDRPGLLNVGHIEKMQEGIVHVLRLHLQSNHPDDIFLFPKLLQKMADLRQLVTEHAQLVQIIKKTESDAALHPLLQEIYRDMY

RXR = conditions: cell research; Kitareewan 1996; cited from earlier work
ISABROWN layers = assay: Layer feeding trial with phytol supplemented feed; format: in vivo; conditions: 2% phytol in feed, compared with standard layer diet
ROSS 308 broiler chicks = assay: Broiler feeding trial with phytol supplemented feed; format: in vivo, chicken; conditions: 42 days
Method: (§1) In the present specification the level of the PPAR/RXR heterodimer activator is expressed as a percentage of total FAME fatty acids. These total FAME fatty acids comprise those fatty acids with a linear chain of at least 12 carbons and are measured by the so-called FAME technique, which is well known for the skilled person and wherein, first, fatty acid methyl esters are prepared which are, subsequently, analysed via gas chromatography. The FAME procedure used for determining the results obtained by the present invention was as follows. Lipids were extracted from the samples using a dissolving solution that is specific to each sample type. Nonadecanoic acid (19:0) was added as an internal standard. The two-step methylation procedure consisted of using a basic reagent NaOH/methanol followed by an acid reagent HCI/methanol. The fatty acid methyl esters (FAME) were analyzed by GC (HP 6890, Hewlett-Packard, Brussels, Belgium) using a CP-Sil88 column for FAME (100 m×250 μm×0.25 μm) (Chrompack, Middelburg, The Netherlands). The GC conditions were as adapted to each sample type. Peaks were identified by comparison of retention times with those of the corresponding standards (Sigma, Botnew, Belgium; Nu-Chek-Prep, Elysian, M N). Identification of the peaks included fatty acids between 12:0 and 22:6 and 5 different CLA isomers and phytanic acid and pristanic acid.
ROSS 308 broiler chicks were raised, lege artis, on an ad libitum diet, containing phytol at 2% by weight of feed that, characteristically, contains about 10% of humidity. The chicks consumed an average of about 0.1 kg dry weight of the feed per day. The phytol in the diet replaced 2% of the soybean oil included in feeds formulated based on the INVE Nutritional Requirement standard formula for a grower feed (formula 120). Please refer to the following tables for the feed formula and for its chemical composition.
The animals were slaughtered after 42 days and their tissues sampled for analysis.

laboratory animals = conditions: Steinberg 1966, cited from earlier work
[1] = tested on: Tiger shrimp (Penaeus Monodon); assay: Shrimp feeding trial with phytol supplemented diet; format: in vivo; conditions: 2% phytol diet, 4 weeks
Hybrid boars = assay: Pork finishing trial with phytol sprayed feed; format: in vivo, pig
Method: as §1
Hybrid boars weighing in at about 80 kg were kept lege artis and fed a standard finishing granulated feed sprayed on with phytol at a level of 2% of feed weight. The feed was formulated and produced by Schatteman in Wetteren, Belgium and contained on average about 7% of humidity. On spraying, the feed readily absorbed this oily substance. […] Tissue samples were taken and the carcass quality assessed. The carcasses were further butchered in the usual fashion to chops, loins, sausages and the like and the meat quality of the prime cuts was assessed.
The quality was assessed objectively using the following parameters: % meat on the carcass, type-index, meat class, meat moisture, meat color, meat temperature and meat pH change.

egg yolk = conditions: cited from earlier work
PPAR gamma = molecular target: T2, PPAR gamma (Homo sapiens, UniProt P37231); conditions: Houseknecht 1998, Yu 2002; cited from earlier work
T2 sequence (P37231 1-505): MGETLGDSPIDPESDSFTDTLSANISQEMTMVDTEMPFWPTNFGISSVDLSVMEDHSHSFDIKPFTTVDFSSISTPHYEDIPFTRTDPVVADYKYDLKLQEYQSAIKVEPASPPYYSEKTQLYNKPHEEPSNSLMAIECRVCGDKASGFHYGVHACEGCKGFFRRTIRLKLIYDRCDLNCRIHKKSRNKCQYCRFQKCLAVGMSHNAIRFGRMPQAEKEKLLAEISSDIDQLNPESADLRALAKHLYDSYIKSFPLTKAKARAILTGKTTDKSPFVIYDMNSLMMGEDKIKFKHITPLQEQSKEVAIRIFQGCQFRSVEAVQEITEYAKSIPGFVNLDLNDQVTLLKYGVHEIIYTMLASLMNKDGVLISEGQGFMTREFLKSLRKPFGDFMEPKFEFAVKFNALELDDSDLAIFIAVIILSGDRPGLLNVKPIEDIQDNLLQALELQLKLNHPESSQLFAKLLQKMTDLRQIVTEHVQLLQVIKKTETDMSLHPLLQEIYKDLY

lean pork = conditions: cited from earlier work
Chicken meat = conditions: max 1.5% CLA in diet, Szymczyk 2001; cited from earlier work
Carp = conditions: max 1% CLA in diet, Choi 1999; cited from earlier work
striped bass = conditions: max 0.6% CLA in diet, Twibell 2000; cited from earlier work
yellow perch = conditions: max 0.6% CLA in diet, Twibell 2001; cited from earlier work

CC(C)CCC[C@@H](C)CCC[C@@H](C)CCCC(C)CC(=O)O (some centres unmarked) [PhA, tetramethylhexadecanoic acid]
PPAR alpha activation (PPAR alpha; physiologic concentrations, Ellinghaus 1999): potent activator of PPAR alpha
RXR ligand (RXR): ligand of RXR

C/C(=C\CO)CCC[C@H](C)CCC[C@H](C)CCCC(C)C [phytol]
mortality nor morbidity (ISABROWN layers): no difference
mortality or morbidity (ROSS 308 broiler chicks; 2% phytol in feed, compared with standard broiler feed): no difference
PhA average level in breast meat (ROSS 308 broiler chicks; ROSS 308, chicken, in vivo): 2.6 % of total fatty acids
content of PhA in the breast meat, one subgroup (ROSS 308 broiler chicks; ROSS 308, chicken, in vivo): around 1.9%
content of PhA in the breast meat, other subgroup (ROSS 308 broiler chicks; ROSS 308, chicken, in vivo): around 3.6%
morbidity (growth retardation, weight loss and lethargy) (laboratory animals; from levels of supplementation of 1% of diet weight on): substantial morbidity
mortality (laboratory animals; levels of 5% of diet weight): serious mortality rates
survival rate ([1]; vs standard diet): no difference
growth (weight at end of feeding trial) ([1]; start 0.7 g): 2.05 g
sickness or death (Hybrid boars; 2% phytol feed, entire finishing period): no animals got sick or died
content of PhA and PrA in the pork meat (Hybrid boars; male, hybrid, pig, in vivo, 1 month): 2.3 % of total FAME fatty acids
feeding behavior or level of activity (Hybrid boars; pig, in vivo): no difference

conjugated linoleic acid [CLA]
max of TFA (maximum level of CLA in product as percent of total fatty acids) (egg yolk; max 2% CLA in diet, Shafer 2001): 7.95%
max of TFA (maximum level of CLA in product as percent of total fatty acids) (egg yolk; max 3% CLA in diet, Raes 2002): 5.3%
max of TFA (maximum level of CLA in product as percent of total fatty acids) (egg yolk; max 5% CLA in diet, Chamruspollert 1999): 11.2%
PPAR alpha agonism (PPAR alpha; Moya-Camarena 1999): agonist of PPAR alpha
PPAR gamma agonism (PPAR gamma): agonist of PPAR gamma
max of TFA (maximum level of CLA in product as percent of total fatty acids) (lean pork; lean pork (>100 kg), max 1% CLA in diet, Thiel-Cooper 2001): 0.7%
max of TFA (maximum level of CLA in product as percent of total fatty acids) (lean pork; lean pork (>100 kg), max 5% CLA in diet, Joo 2002): 1.6%
max of TFA (maximum level of CLA in product as percent of total fatty acids) (lean pork; lean pork (up to 55 kg), max 1.4% CLA in diet, Ramsey 2001): 3.2%
max of TFA (maximum level of CLA in product as percent of total fatty acids) (Chicken meat): 10.27%
max of TFA (maximum level of CLA in product as percent of total fatty acids) (Carp): 13%
max of TFA (maximum level of CLA in product as percent of total fatty acids) (striped bass): 8.1%
max of TFA (maximum level of CLA in product as percent of total fatty acids) (yellow perch): 2.92%
